{"source": "paper PMC10419252", "about": "“Synthesis, Properties, and Biomedical Application of Dicationic Gemini Surfactants with Dodecane Spacer and Carbamate Fragments” (International Journal of Molecular Sciences, 2023)", "key": {"[1]": {"settings": "alkyltrimethylammonium bromides; cited from earlier work"}, "[2]": {"tested_on": "methicillin-resistant S. aureus MRSA-1 (resistant to fluoroquinolones and beta-lactams)", "settings": "cited from earlier work"}, "[3]": {"tested_on": "Candida albicans ATCC 10231", "test": "Antifungal activity (Ca)", "assay_type": "cell-based", "settings": "Candida albicans, ATCC10231", "method": "(§1) The antimicrobial activity of the compounds was tested on Gram-positive Staphylococcus aureus ATCC 6538P FDA 209P (Sa), Bacillus cereus ATCC 10702 NCTC 8035 (Bc), Enterococcus faecalis ATCC 29212 (Ef), and Gram-negative bacteria Escherichia coli ATCC 25922 (Ec), Pseudomonas aeruginosa ATCC 9027 (Pa), including methicillin-resistant strains of S. aureus MRSA-1 (resistant to fluoroquinolones and beta-lactams) and MRSA-2 (resistant to beta-lactams). Antifungal activity was studied against Candida albicans ATCC 10231 (Ca), Trichophyton mentagrophytes var. gypseum 1773 (Tm), and Aspergillus niger BKMF-1119 (An). A more detailed description of the experiment is published in [21]."}, "[4]": {"tested_on": "Trichophyton mentagrophytes var. gypseum 1773", "test": "Antifungal activity (Tm)", "assay_type": "cell-based", "settings": "Trichophyton mentagrophytes", "method": "as §1"}, "[5]": {"tested_on": "Aspergillus niger BKMF-1119", "test": "Antifungal activity (An)", "assay_type": "cell-based", "settings": "Aspergillus niger, BKMF1119", "method": "as §1"}}}
{"smiles": "CCCCCCCCCCCCCC[N+](C)(C)C.[Br-]", "note": "[C14TAB]", "values": [{"measurement": "Nagg", "setting": "[1]", "result": 70}]}
{"smiles": "CCCCCCCCCCCCCCCC[N+](C)(C)C.[Br-]", "note": "[C16TAB]", "values": [{"measurement": "Nagg", "setting": "[1]", "result": 89}]}
{"smiles": "O=C(O)c1cn(C2CC2)c2cc(N3CCNCC3)c(F)cc2c1=O", "note": "[Ciprofloxacin]", "values": [{"measurement": "effectiveness toward MRSA-1 compared with 10-12-10(Et)", "setting": "[2]", "result": "two orders of magnitude less effective"}]}
{"smiles": "CC(=O)N1CCN(c2ccc(OCC3COC(Cn4ccnc4)(c4ccc(Cl)cc4Cl)O3)cc2)CC1", "note": "(stereo not drawn) [Ketoconazole, reference compound]", "values": [{"measurement": "MFC", "setting": "[3]; read-out: MFC, Ca", "result": "3.9 ± 0.3", "unit": "µg/mL"}, {"measurement": "MIC", "setting": "[3]; read-out: MIC, Ca", "result": "3.9 ± 0.3", "unit": "µg/mL"}, {"measurement": "MFC", "setting": "[4]; read-out: MFC, Tm", "result": "3.9 ± 0.3", "unit": "µg/mL"}, {"measurement": "MIC", "setting": "[4]; read-out: MIC, Tm", "result": "3.9 ± 0.3", "unit": "µg/mL"}, {"measurement": "MFC", "setting": "[5]; read-out: MFC, An", "result": "125 ± 10", "unit": "µg/mL"}, {"measurement": "MIC", "setting": "[5]; read-out: MIC, An", "result": "15.6 ± 1.3", "unit": "µg/mL"}]}
